Assay results published in patent publication US11202779B2, “Combinations for the treatment of neoplasms using quiescent cell targeting with EGFR inhibitors” (Felicitex Therapeutics, Inc., priority 2016, dated 2021).
Read-outs that look alike come from different tables or passages of the source.

How the values were obtained:
SW620 cells = assay: FACS analysis of cell cycle distribution by DNA content (propidium iodide), SW620; format: cell-based; conditions: 24 hours in FBS− media, AZ191 2.5, 5, 10 μM, Compound I-7 1.25, 2.5, 5 μM
Procedure: (§1) The SW620 cells were cultured and treated as described in Example 1. For propidium iodide (PI) staining, manufacturer's protocol supplied with the Guava Cell Cycle Reagent for Flow Cytometry (EMD Millipore) was followed. The measurements were performed with Guava PCA-96 flow cytometer (EMD Millipore) using the green laser for excitation at 535 nm and monitoring emission at 617 nm.
as §1, with “cultured, treated,” for “cultured”, “analyzed” for “treated”, “Examples” for “Example”

DYRK1B [1] = conditions: literature value; read-out: inhibits DYRK1B at; cited from earlier work
quiescent cancer cells = conditions: in vitro, literature; cited from earlier work
H1975 cells [2] = assay: Cell viability assay in 2D cell culture (CellTiter-Glo), H1975; format: cell-based; conditions: Homo sapiens, NCI-H1975, 96 h
A549 cells = assay: Cell viability assay in 2D cell culture (CellTiter-Glo), A549; format: cell-based; conditions: Homo sapiens, A549, 96 h
Excerpt: (§2) The following cell lines were obtained from ATCC and cultured according to the ATCC recommendations: H1975—non-small cell lung cancer cell line harboring L858R and T790M mutations; HCC827—non-small cell lung cancer cell line with E746-A750 deletion in EGFR TK; PC9—non-small cell lung cancer cell line with E746-A750 deletion in EGFR TK; A549—non-small cell lung cancer cell line with wild type EGFR; PANC1—pancreatic cancer cell line; MiaPaCa-2—pancreatic cancer cell line, and SW620—colon cancer cell line. Cell cultures of these lines were seeded into 6-well plates at 3×10^5−6×10^5 cells/well; the plated number of cells depended on cell size and rate of proliferation, aiming for approximately 50% confluency. After seeding, the cells were allowed to attach for 24 hours while incubated at 37° C. in a humidified 5% CO2 atmosphere, and then treated with compounds for desired amount of time (usually 24 hours) incubating under same conditions. Then the cells were harvested by trypsinization, pooled with the floating cells, washed in PBS, and fixed in 70% ice-cold ethanol overnight. For Acridine Orange (AO) staining, fixed cells were washed once with ice-cold PBS, re-suspended in 100 μL PBS, followed by addition of 200 μL of permeabilizing solution and 600 μL AO staining solution.
(§3) For viability analysis, cells were seeded into 96-well plates at 2×10^3-6×10^3 cells/well; depending on cell size and rate of proliferation aiming for approximately 50% confluency. Cells were allowed to attach for 24 hours incubated at 37° C. in a humidified 5% CO2 atmosphere. The treatments were performed using at least 6 different concentrations of a compound in 1:3 serial dilutions. Before reading the results cells were incubated for 96 hours in 5% CO2 incubator at 37° C. Each treatment was performed in triplicate. Results were analyzed by CellTiter-Glo™ Luminescent Cell Viability Assay (Promega, cat. # G7571) according to the manufacturer's instructions using SpectraMAX Gemini Spectrophotometer (Molecular Devices).

PANC1 cells = assay: Cell viability assay in 2D cell culture (CellTiter-Glo), PANC1; format: cell-based; conditions: Homo sapiens, PANC-1, 96 h
PC9 cells = assay: Cell viability assay in 2D cell culture (CellTiter-Glo), PC9; format: cell-based; conditions: Homo sapiens, PC-9, 96 h
Excerpt: as §2, §3

H1975 cells [3] = assay: FACS analysis of cell cycle distribution (Acridine Orange), H1975; format: cell-based; conditions: 24 hours
[4] = tested on: phosphorylated Y1068-EGFR; assay: Western blot, EGFR phosphorylation in H1975 cells; format: cell-based; conditions: 24 hours treatment
Procedure: (§4) For Western Blot analysis cells were seeded into 6-well plates at 5×10^5-9×10^5 cells/well (depending on the cell size and rate of proliferation), allowed to attach for 24 hours, then treated with compounds for 24 hours, and harvested. Immunoblotting was performed using conventional techniques, as described in Cell Signaling Technologies Western Blotting protocol (www.cellsignal.com).

H1975 spheroids = assay: Cell viability assay in 3D cell culture (spheroids), H1975; format: cell-based; conditions: Homo sapiens, NCI-H1975, 168 h, seven days
Procedure: Each treatment was performed in triplicate.
Cells were incubated for 2-3 days (depending on the cell line) at 37° C. in a humidified 5% CO2 atmosphere allowing for tight spheroid formation. For the treatment, 50 μL of media was removed from each well and replaced with fresh media with compounds. […] Before reading the results, cells were incubated for the period of 4-10 days in 5% CO2 incubator at 37° C. If the treatment time exceeded 4 days, […] in each well was replaced with fresh media containing the test compound every fourth day. Each treatment was performed in duplicate. […] Prior to analysis, the spheroids were photographed at 50× magnification.

DYRK1B [5] = assay: Western blot, DYRK1B expression in H1975 cells; format: cell-based; conditions: 24 hours treatment, compared to untreated cells in FBS+ or FBS− medium
Procedure: as §4

[6] = tested on: PC9 human non-small cell lung cancer cells; conditions: exposure of PC9 cells, literature; cited from earlier work
MiaPaCa-2 cells = assay: Cell viability assay in 2D cell culture (CellTiter-Glo), MiaPaCa-2; format: cell-based; conditions: Homo sapiens, MIA PaCa-2, 96 h
Excerpt: as §2, §3

[7] = EGFR inhibitor alone (Compound I-7 not present)
[8] = EGFR inhibitor alone (Compound I-5 / I-7 not present)
[9] = Compound I-7 present at 2 μM, read-out: EC50
[10] = Compound I-7 present at 4 μM, read-out: EC50
[11] = EGFR inhibitor alone (Compound I-5 / I-7 not present), read-out: EC50
[12] = 18 nM osimertinib with 5 μM Compound I-7, FBS+ or pre-starved

SMILES: CCOC(=N)c1nc2ccc3ncnc(Nc4cc(F)c(F)cc4Cl)c3c2s1 [Compound I-7]
- fraction of cells in quiescent state (G0), based on fraction of cells G0+G1 phase (SW620 cells): significant decrease in fraction of cells in quiescent state (G0)

SMILES: COc1cc(N2CCN(C)CC2)ccc1Nc1nccc(-c2cn(C)c3cnccc23)n1 [AZ191]
- fraction of cells in quiescent state (G0), based on fraction of cells G0+G1 phase (SW620 cells): no decrease in fraction of cells in quiescent state (G0)
- IC50 (DYRK1B [1]): 0.017 µM

SMILES: COc1ncc2cc(C(=O)Nc3cc(C(=O)NCc4cccc(Cl)c4)ccc3Cl)c(=O)[nH]c2n1 [TC-S 7004]
- effectiveness against quiescent cancer cells (quiescent cancer cells): effective against quiescent cancer cells in vitro

SMILES: CN(C)C/C=C/C(=O)Nc1cc2c(Nc3ccc(F)c(Cl)c3)ncnc2cc1O[C@H]1CCOC1 [afatinib]
- EC50 (H1975 cells [2]; Compound I-7 present at 2 μM): 0.0252 µM
- EC50 (H1975 cells [2]; Compound I-7 present at 4 μM): 0.0082 µM
- EC50 (H1975 cells [2]; [7]): 0.0894 µM
- EC50 (A549 cells; Compound I-7 present at 3 μM): 2.6 µM
- EC50 (A549 cells; Compound I-7 present at 6 μM): 1 µM
- EC50 (A549 cells; [7]): 4.7 µM
- EC50 (PANC1 cells; Compound I-7 present at 2 μM): 1.8 µM
- EC50 (PANC1 cells; Compound I-7 present at 4 μM): 1.5 µM
- EC50 (PANC1 cells; [8]): 1.9 µM
- EC50 (PC9 cells; Compound I-7 present at 3 μM): 0.0013 µM
- EC50 (PC9 cells; Compound I-7 present at 6 μM): 0.0004 µM
- EC50 (PC9 cells; [8]): 0.0021 µM

SMILES: C=CC(=O)Nc1cccc(Nc2nc(Nc3ccc(N4CCN(C(C)=O)CC4)cc3OC)ncc2C(F)(F)F)c1 [rociletinib]
- EC50 (H1975 cells [2]; Compound I-7 present at 2 μM): 0.0225 µM
- EC50 (H1975 cells [2]; Compound I-7 present at 4 μM): 0.0149 µM
- EC50 (H1975 cells [2]; [7]): 0.351 µM
- EC50 (PANC1 cells; [9]): 9.9 µM
- EC50 (PANC1 cells; [10]): 7.1 µM
- EC50 (PANC1 cells; [11]): 11.4 µM

SMILES: C=CC(=O)Nc1cc(Nc2nccc(-c3cn(C)c4ccccc34)n2)c(OC)cc1N(C)CCN(C)C [osimertinib]
- EC50 (H1975 cells [2]; Compound I-7 present at 2 μM): 0.0079 µM
- EC50 (H1975 cells [2]; Compound I-7 present at 4 μM): 0.0042 µM
- EC50 (H1975 cells [2]; [7]): 0.0087 µM
- fraction of cells in quiescent (G0) state (H1975 cells [3]; 18 nM osimertinib alone, pre-incubated in FBS+ or pre-starved in FBS− medium): even more effective than serum starvation (FBS−) at inducing a large fraction of the cells into the quiescent (G0) state
- apoptotic cells (sub-G0 population) (H1975 cells [3]; [12]): significant increases in apoptotic cells
- fraction of cells in G0 (H1975 cells [3]; [12]): reduced the fraction of cells in G0
- EGFR phosphorylation (ph-Y1068 EGFR) [4]: suppressed the EGFR phosphorylation
- EC50 (PANC1 cells; [9]): 4.6 µM
- EC50 (PANC1 cells; [10]): 4.5 µM
- EC50 (PANC1 cells; [11]): 5.3 µM
- EC50 (H1975 spheroids; regular growth media (FBS+), Compound I-7 not present): 0.00068 µM
- EC50 (H1975 spheroids; regular growth media (FBS+), Compound I-7 present at 2.5 μM): 0.00028 µM
- EC50 (H1975 spheroids; serum starvation (FBS−), Compound I-7 not present): 0.0033 µM
- EC50 (H1975 spheroids; serum starvation (FBS−), Compound I-7 present at 2.5 μM): 0.001 µM
- expression of DYRK1B protein (DYRK1B [5]): induced expression of DYRK1B protein similar to or higher than that produced by serum starvation

SMILES: COc1cc2ncnc(Nc3ccc(F)c(Cl)c3)c2cc1NC(=O)/C=C/CN1CCCCC1 [dacomitinib]
- EC50 (H1975 cells [2]; Compound I-7 present at 2 μM): 0.0886 µM
- EC50 (H1975 cells [2]; Compound I-7 present at 4 μM): 0.0348 µM
- EC50 (H1975 cells [2]; [7]): 0.11 µM
- EGFR phosphorylation (ph-Y1068 EGFR) [4]: suppressed the EGFR phosphorylation
- EC50 (PANC1 cells; [9]): 9.9 µM
- EC50 (PANC1 cells; [10]): 7.1 µM
- EC50 (PANC1 cells; [11]): 11.4 µM
- expression of DYRK1B protein (DYRK1B [5]): induced expression of DYRK1B protein similar to or higher than that produced by serum starvation

SMILES: CS(=O)(=O)CCNCc1ccc(-c2ccc3ncnc(Nc4ccc(OCc5cccc(F)c5)c(Cl)c4)c3c2)o1 [lapatinib]
- fraction of cells in G0 (pharmacological quiescence) [6]: significant increase of fraction of cells in G0

SMILES: C#Cc1cccc(Nc2ncnc3cc(OCCOC)c(OCCOC)cc23)c1 [erlotinib]
- EC50 (A549 cells; Compound I-7 present at 3 μM, read-out: EC50): 5.9 µM
- EC50 (A549 cells; Compound I-7 present at 6 μM, read-out: EC50): 0.4 µM
- EC50 (A549 cells; EGFR inhibitor alone (Compound I-7 not present), read-out: EC50): 10.4 µM
- fraction of cells in G0 (pharmacological quiescence) [6]: significant increase of fraction of cells in G0
- EC50 (PANC1 cells; Compound I-5 present at 2.5 μM, read-out: EC50): > 30 µM
- EC50 (PANC1 cells; Compound I-5 present at 5 μM, read-out: EC50): 14 µM
- EC50 (PANC1 cells; [11]): > 30 µM
- EC50 (PC9 cells; Compound I-5 present at 2 μM): 0.0093 µM
- EC50 (PC9 cells; Compound I-5 present at 4 μM): 0.0037 µM
- EC50 (PC9 cells; [8]): 0.0173 µM
- EC50 (MiaPaCa-2 cells; Compound I-5 present at 2.5 μM): 6.4 µM
- EC50 (MiaPaCa-2 cells; Compound I-5 present at 5 μM): 3.5 µM
- EC50 (MiaPaCa-2 cells; erlotinib alone (Compound I-5 not present)): > 30 µM
